Data reported in US12258321B1 (University of Jeddah, priority 2024, dated 2025).

What was measured:
MCF-7 cells = test: MTT cytotoxicity test on MCF-7 breast cancer cells; assay type: cell-based, human; conditions: for IC50: Homo sapiens, MCF7, 24 h, read-out: IC50, cytotoxic activity against MCF7 breast cancer cells
Method: The MCF-7 breast cancer cell lines were purchased from VACSERA Tissue Culture Unit (Giza, Egypt). MCF-7 cells were cultured in RPMI medium supplemented with 2 mM glutamine and 10% fetal bovine serum. Both cell cultures included […] streptomycin and 100 units/ml penicillin and were kept in a humidified atmosphere with 5% CO2 at 37° C.
All experiments were performed in triplicate. Data were given as mean±SD.

BCL-2 [1] = molecular target: T1, BCL-2 (Homo sapiens, UniProt P10415); test: BCL-2 inhibition by TR-FRET assay (cell-free); assay type: binding; conditions: read-out: IC50 against BCL-2
T1 construct: purchased BPS Bioscience
T1 sequence (P10415 whole entry): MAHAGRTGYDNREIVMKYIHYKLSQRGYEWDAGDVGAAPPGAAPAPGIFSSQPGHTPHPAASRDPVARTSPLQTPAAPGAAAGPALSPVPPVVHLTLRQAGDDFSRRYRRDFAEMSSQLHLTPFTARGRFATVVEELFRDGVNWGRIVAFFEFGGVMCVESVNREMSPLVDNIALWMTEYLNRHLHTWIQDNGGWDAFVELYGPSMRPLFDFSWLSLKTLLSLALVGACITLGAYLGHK
Method: (§1) The effectiveness of inhibiting the MCL-1 and BCL-2 proteins was evaluated using specific assay kits (BPS Bioscience, Sandiego, CA) and corresponding ligands for each protein. […] Measurements were taken of Tb-donor emission at 620 nm followed by dye-acceptor emission at 665 nm, and data analysis was performed using the TR-FRET ratio (665 nm emission/620 nm emission). The FRET value from the positive control was considered as full activity (100%) and the FRET value from the negative control was considered as zero percent activity. Then, % inhibitory activity of test compounds was calculated by the equation: % Activity=FRETS−FRETneg/FRETP−FRETneg×100%
(§2) Where FRETS, FRETneg, and FRETp are sample FRET, negative control FRET, and positive control FRET, respectively. The IC50 values of the test compounds were calculated by nonlinear regression analysis on GraphPad Prism 5 (GraphPad Inc., USA).

MCL-1 [2] = molecular target: T2, MCL-1 (Homo sapiens, UniProt Q07820); test: MCL-1 inhibition by TR-FRET assay (cell-free); assay type: binding; conditions: read-out: IC50 against MCL-1
T2 construct: purchased BPS Bioscience
T2 sequence (Q07820 whole entry): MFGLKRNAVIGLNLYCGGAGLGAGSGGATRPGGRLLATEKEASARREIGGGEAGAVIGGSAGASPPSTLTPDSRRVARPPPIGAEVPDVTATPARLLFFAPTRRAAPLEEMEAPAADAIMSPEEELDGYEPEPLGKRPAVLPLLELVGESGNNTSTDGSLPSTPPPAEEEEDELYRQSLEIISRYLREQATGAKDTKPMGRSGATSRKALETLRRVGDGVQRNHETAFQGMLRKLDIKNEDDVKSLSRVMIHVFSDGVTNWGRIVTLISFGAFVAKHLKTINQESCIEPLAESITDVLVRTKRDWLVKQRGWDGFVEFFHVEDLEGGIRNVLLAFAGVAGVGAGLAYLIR
Method: as §1, §2

BAX = test: Western blot of BAX level in MCF7 cells; assay type: cell-based, human; conditions: 24 hours
Method: (§3) MCF-7 cells were exposed to compounds Comp-1 and Comp-6 for a period of 24 h, after which western blot analysis was conducted using a previously established protocol^21. To assess the release of cytochrome c, cytosolic and mitochondrial fractions were prepared in accordance with the methods outlined by Kawiak et al^21. Specific primary antibodies were utilized viz; anti-β-actin (1:1,000) (Cell Signaling, Danvers, MA, USA), anti-Bcl-2, anti-Bax, and anti-Mcl-1 (1:250) (Santa Cruz, Heidelberg, Germany), anti-ERK1/2, anti-MEK1/2, anti-p-ERK1/2, and anti-p-MEK1/2 (1:1,000) (Cell Signaling), and anti-cytochrome c (1:5,000) (Abcam, UK), and membranes were subjected to an overnight incubation with these antibodies at 4° C. This was followed by a 1 h incubation with HRP-conjugated secondary antibodies (1:2000) (Cell Signaling). The levels of protein were then determined using chemiluminescence (ChemiDoc; Bio-Rad, Waltham, MA, USA) with an HRP substrate (Thermo Scientific, MA, USA).
(§4) The cytotoxic mechanisms of the exemplary compounds Comp-1 and Comp-6 were investigated. Given that apoptosis is a common mechanism of action for many cancer therapies, we analyzed the levels of apoptotic markers BAX, BCL-2 and MCL-1 after treating MCF7 cells with Comp-1 and Comp-6 for 24 hours. Western blot analysis was performed on cell lysates and compared to untreated cell lysates.

BCL-2 [3] = test: Western blot of BCL-2 expression in MCF7 cells; assay type: cell-based, human; conditions: 24 hours, vs untreated
Method: as §3, §4

MCL-1 [4] = test: Western blot of MCL-1 expression in MCF7 cells; assay type: cell-based, human; conditions: 24 hours, vs untreated
Method: as §3, §4

p-MEK1/2 = test: Western blot of p-MEK1/2 in EGF-stimulated MCF7 cells; assay type: cell-based, human; conditions: MCF7 cells stimulated with EGF for 30 minutes
Method: as §3
(§5) To investigate the impact of exemplary compounds on the cancer-promoting MAPK pathway in MCF7 breast cancer cells, we stimulated the cells with epidermal growth factor (EGF) for 30 minutes to induce p-ERK1/2 and p-MEK1/2 protein expression.

p-ERK1/2 = test: Western blot of p-ERK1/2 in EGF-stimulated MCF7 cells; assay type: cell-based, human; conditions: MCF7 cells stimulated with EGF for 30 minutes
Method: as §3, §5

| SMILES | IC50 (MCF-7 cells) | IC50 (BCL-2 [1]) | IC50 (MCL-1 [2]) | BAX increase compared to untreated cells (Control) (BAX) | reduction of BCL-2 expression (BCL-2 [3]) | reduction of MCL-1 expression (MCL-1 [4]) | reduction of p-MEK1/2 signal (p-MEK1/2) | reduction of p-ERK1/2 signal (p-ERK1/2) | potency relative to the reference drug Staurosporine (fold higher) (MCF-7 cells; MCF7 cytotoxicity IC50 ratio) |
| --- | --- | --- | --- | --- | --- | --- | --- | --- | --- |
| O=C(Cc1ccc(-n2cc(COc3cccc4ccccc34)nn2)cc1)NCc1ccccc1 | 1.88 µM | 1.92 µM | 0.756 µM | nine-fold | 55.9% | 43.7% | 55.9% | 50.7% | – |
| O=C(Cc1ccc(-n2cc(CO)nn2)cc1)NCc1ccccc1 [Comp-1, N-benzyl-2-(4-(4-(hydroxymethyl)-1H-1,2,3-triazol-1-yl)phenyl)acetamide] | 1.09 µM | 0.507 µM | 0.365 µM | more than five-fold | 65.3% | 65.4% | 65.3% | 46.1% | approximately 5 fold |
| O=C(Cc1ccc(-n2cc(COCc3ccccc3)nn2)cc1)NCc1ccccc1 [Comp-5, N-benzyl-2-(4-(4-((benzyloxy)methyl)-1H-1,2,3-triazol-1-yl)phenyl)acetamide] | 3.2 µM | – | – | – | – | – | – | – | – |
